Assays:
Assay type in all cases: cell-based
NK1 = NK1 (Homo sapiens, UniProt P25103); test: Signal transduction (ST), intracellular Ca++ FLIPR, NK1; conditions: antagonist response, Ca++ transient peak, read-out: NK1 pIC50 (converted)
Protocol: This test evaluates in vitro functional NK1 antagonistic activity. For the measurements of intracellular Ca^++ concentrations the cells were grown on 96-well (black wall/transparent bottom) plates from Costar for 2 days until they reached confluence. The cells were loaded with 2 μM Fluo3 in DMEM containing 0.1% BSA and 2.5 mM probenecid for 1 h at 37° C. They were washed 3× with a Krebs buffer (140 mM NaCl, 1 mM MgCl2×6H2O, 5 mM KCl, 10 mM glucose, 5 mM HEPES; 1.25 mM CaCl2; pH 7.4) containing 2.5 mM probenecid and 0.1% BSA (Ca^++-buffer). The cells were preincubated with a concentration range of antagonists for 20 min at RT and Ca^++-signals after addition of the agonists were measured in a Fluorescence Inage Plate Reader (FLIPR from Molecular Devices, Crawley, England). The peak of the Ca^++-transient was considered as the relevant signal and the mean values of corresponding wells were analysed as described below. The sigmoidal dose response curves were analysed by computerised curve-fitting, using the GraphPad Program. The EC50-value of a compound is the effective dose showing 50% of maximal effect. For mean curves the response to the agonist with the highest potency was normalised to 100%. For antagonist responses the IC50-value was calculated using non-linear regression. The last column indicates—without being limited thereto—for which use the compounds might be most suitable.

NK2 = target: T1, NK2 (Homo sapiens, UniProt P21452); test: Signal transduction (ST), intracellular Ca++ FLIPR, NK2; conditions: antagonist response, Ca++ transient peak, read-out: NK2 pIC50 (converted)
T1 sequence (P21452 1-398): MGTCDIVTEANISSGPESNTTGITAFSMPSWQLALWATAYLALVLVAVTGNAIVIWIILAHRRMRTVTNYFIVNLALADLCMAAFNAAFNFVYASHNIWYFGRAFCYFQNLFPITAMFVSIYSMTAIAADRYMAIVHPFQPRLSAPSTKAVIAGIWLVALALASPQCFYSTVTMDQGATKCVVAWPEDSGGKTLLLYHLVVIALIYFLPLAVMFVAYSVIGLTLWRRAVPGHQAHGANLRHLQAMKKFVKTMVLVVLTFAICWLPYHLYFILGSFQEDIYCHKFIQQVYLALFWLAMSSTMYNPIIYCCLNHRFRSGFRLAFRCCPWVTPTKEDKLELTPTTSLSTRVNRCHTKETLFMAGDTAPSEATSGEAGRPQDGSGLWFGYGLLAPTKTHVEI

NK3 = target: T2, NK3 (Homo sapiens, UniProt P29371); test: Signal transduction (ST), intracellular Ca++ FLIPR, NK3; conditions: antagonist response, Ca++ transient peak, read-out: NK3 pIC50 (converted)
T2 sequence (P29371 1-465): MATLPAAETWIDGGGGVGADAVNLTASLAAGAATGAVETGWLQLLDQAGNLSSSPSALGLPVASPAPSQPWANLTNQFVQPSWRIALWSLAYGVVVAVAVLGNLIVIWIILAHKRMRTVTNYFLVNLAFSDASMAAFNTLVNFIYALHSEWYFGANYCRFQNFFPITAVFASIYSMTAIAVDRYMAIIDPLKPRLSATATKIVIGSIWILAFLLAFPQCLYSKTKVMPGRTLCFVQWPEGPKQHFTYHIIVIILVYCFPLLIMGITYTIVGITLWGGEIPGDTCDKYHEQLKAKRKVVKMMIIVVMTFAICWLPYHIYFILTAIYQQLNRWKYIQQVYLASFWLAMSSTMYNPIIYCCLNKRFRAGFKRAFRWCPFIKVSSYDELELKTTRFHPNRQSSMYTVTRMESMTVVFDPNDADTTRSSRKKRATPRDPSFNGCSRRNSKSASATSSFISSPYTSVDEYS

NK1, sequence (P25103 whole entry): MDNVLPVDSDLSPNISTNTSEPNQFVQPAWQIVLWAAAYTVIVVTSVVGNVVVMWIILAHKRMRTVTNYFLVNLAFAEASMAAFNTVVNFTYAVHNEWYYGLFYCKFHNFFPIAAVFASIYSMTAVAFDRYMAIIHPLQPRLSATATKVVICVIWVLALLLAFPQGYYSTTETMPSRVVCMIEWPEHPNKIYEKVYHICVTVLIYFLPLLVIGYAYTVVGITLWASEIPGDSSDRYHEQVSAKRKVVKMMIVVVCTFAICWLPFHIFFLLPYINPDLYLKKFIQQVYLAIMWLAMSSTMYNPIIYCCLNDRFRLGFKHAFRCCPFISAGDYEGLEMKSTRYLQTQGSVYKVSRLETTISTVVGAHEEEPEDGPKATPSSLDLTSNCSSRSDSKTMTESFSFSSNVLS

SMILES | IC50 (NK1) [nM] | IC50 (NK2) [nM] | IC50 (NK3) [nM]
O=C(C1CC1)N1CCC2(CCN(C3CCN(C(=O)c4cc(C(F)(F)F)cc(C(F)(F)F)c4)C(Cc4ccccc4)C3)C2)C1 (stereo not drawn) [Compound 2-4] | 100 | 2510 | –
O=C(c1cccs1)N1CCC2(CCN([C@H]3CCN(C(=O)c4cc(C(F)(F)F)cc(C(F)(F)F)c4)[C@H](Cc4ccccc4)C3)C2)C1 (stereo partly drawn) [Compound 2-7] | 158 | 6310 | 2510
O=C(c1cc(C(F)(F)F)cc(C(F)(F)F)c1)N1CCC(N2CCC3(CCCN3C(=O)C3CCOC3)C2)CC1Cc1ccccc1 (single isomer, unassigned) [Compound 1-6] | 63.1 | 1580 | > 10000
O=C(c1cc(C(F)(F)F)cc(C(F)(F)F)c1)N1CCC(N2CCC3(CCCN3C(=O)C3CC3)C2)CC1Cc1ccccc1 (stereo not drawn) [Compound 1-3] | 251 | 3980 | > 10000
O=C(c1cc(C(F)(F)F)cc(C(F)(F)F)c1)N1CC[C@@H](N2CCC3(CCCN3C(=O)c3ccccc3)C2)C[C@H]1Cc1ccccc1 (stereo partly drawn) [Compound 1-11] | 158 | – | > 10000
O=C(c1cc(C(F)(F)F)cc(C(F)(F)F)c1)N1CCC(N2CCC3(CCCN3C(=O)C3CCOC3)C2)CC1Cc1ccccc1 (single isomer, unassigned) [Compound 1-5] | 50.1 | 6310 | –
CC(C)(C)C(=O)N1CCC2(CCN([C@H]3CCN(C(=O)c4cc(C(F)(F)F)cc(C(F)(F)F)c4)[C@H](Cc4ccccc4)C3)C2)C1 (stereo partly drawn) [Compound 2-3] | 63.1 | 3160 | 6310
O=C(c1cc(C(F)(F)F)cc(C(F)(F)F)c1)N1CCC(N2CCC3(CCCN3Cc3ccccc3)C2)CC1Cc1ccccc1 (stereo not drawn) [Compound 1-2] | 631 | > 10000 | > 10000
Cc1nnsc1C(=O)N1CCC2(CCN([C@H]3CCN(C(=O)c4cc(C(F)(F)F)cc(C(F)(F)F)c4)[C@H](Cc4ccccc4)C3)C2)C1 (stereo partly drawn) [Compound 2-8] | 100 | 6310 | 3980
O=C(c1ccccc1)N1CCC2(CCN([C@H]3CCN(C(=O)c4cc(C(F)(F)F)cc(C(F)(F)F)c4)[C@H](Cc4ccccc4)C3)C2)C1 (stereo partly drawn) [Compound 2-9] | 126 | 5010 | 3980
O=C(c1cc(C(F)(F)F)cc(C(F)(F)F)c1)N1CC[C@@H](N2CCC3(CCCN3C(=O)c3cnccn3)C2)C[C@H]1Cc1ccccc1 (stereo partly drawn) [Compound 1-12] | 200 | 3980 | > 10000
O=C(c1cnccn1)N1CCC2(CCN([C@H]3CCN(C(=O)c4cc(C(F)(F)F)cc(C(F)(F)F)c4)[C@H](Cc4ccccc4)C3)C2)C1 (stereo partly drawn) [Compound 2-10] | 251 | 5010 | > 10000
O=C(c1cc(C(F)(F)F)cc(C(F)(F)F)c1)N1CC[C@@H](N2CCC3(CCCN3C(=O)c3ccoc3)C2)C[C@H]1Cc1ccccc1 (stereo partly drawn) [Compound 1-8] | 100 | 6310 | > 10000
O=C(c1ccoc1)N1CCC2(CCN([C@H]3CCN(C(=O)c4cc(C(F)(F)F)cc(C(F)(F)F)c4)[C@H](Cc4ccccc4)C3)C2)C1 (stereo partly drawn) [Compound 2-6] | 50.1 | 5010 | 3160
O=C(c1cc(C(F)(F)F)cc(C(F)(F)F)c1)N1CC[C@H](N2CCC3(CCCN3C(=O)c3ccccc3)C2)C[C@H]1Cc1ccccc1 (stereo partly drawn) [Compound 1-10] | 200 | 5010 | > 10000
O=C(C1CCOC1)N1CCC2(CCN([C@H]3CCN(C(=O)c4cc(C(F)(F)F)cc(C(F)(F)F)c4)[C@H](Cc4ccccc4)C3)C2)C1 (stereo partly drawn) [Compound 2-5] | 39.8 | 2510 | 2000
O=C(c1cc(C(F)(F)F)cc(C(F)(F)F)c1)N1CC[C@@H](N2CCC3(CCCN3C(=O)c3cccs3)C2)C[C@H]1Cc1ccccc1 (stereo partly drawn) [Compound 1-9] | 50.1 | 6310 | > 10000
O=C(c1cc(C(F)(F)F)cc(C(F)(F)F)c1)N1CC[C@H](N2CCC3(CCCN3C(=O)c3ccoc3)C2)C[C@H]1Cc1ccccc1 (stereo partly drawn) [Compound 1-7] | 100 | 3160 | > 10000
